Common to all, as to type: biochemical
In experiment [1] the target is T1, type I human arginase V182E (Homo sapiens, UniProt P05089, V182E).
T1 sequence (P05089 1-322 V182E): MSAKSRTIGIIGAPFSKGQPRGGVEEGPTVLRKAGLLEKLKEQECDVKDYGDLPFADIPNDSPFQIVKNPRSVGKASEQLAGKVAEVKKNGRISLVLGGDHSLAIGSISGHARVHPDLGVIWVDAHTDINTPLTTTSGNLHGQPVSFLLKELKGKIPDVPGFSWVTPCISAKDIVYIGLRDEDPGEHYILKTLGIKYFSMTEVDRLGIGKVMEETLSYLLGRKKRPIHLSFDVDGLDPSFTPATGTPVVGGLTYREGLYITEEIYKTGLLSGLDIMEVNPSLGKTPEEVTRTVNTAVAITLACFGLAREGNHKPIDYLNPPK
The experiment can be described thus: Kinetic and inhibition studies, V182E mutant. The settings on record: substrate arginine. The protocol:
(§1) Bacterial cultures were grown with shaking at 37 °C in Luria Broth media, in the presence of ampicillin (100 μg/mL). The wild-type and mutant human liver arginase cDNAs were directionally cloned into the pBluescript II KS(+) expression vector and then expressed in E. coli JM109, following induction with 1 mM isopropyl β-D-thiogalactopyranoside. The bacterial cells were disrupted by sonication on ice (5 × 30 s pulses), centrifuged for 20 min at 12,000× g, and the obtained supernatant was precipitated with ammonium sulfate (60% saturation). The pellet, collected by centrifugation at 12,000× g for 10 min, was re-suspended in buffer 5 mM Tris–HCl (pH 7.5) containing 2 mM MnCl2 and dialyzed for 6 h at 4 °C against the same buffer. After incubation with 5 mM MnCl2 for 10 min at 60 °C, the enzyme variants were purified as previously described. The purity of the enzymes was evaluated by SDS–PAGE stained by Coomassie blue and immunodetection using an anti- rat arginase I antibody.
(§2) The single, double, triple, and chimera variants of human arginase type I were obtained by PCR, using the QuickChange site-directed mutagenesis kit (Stratagene, La Jolla, CA, USA); the plasmid pBluescript II KS(+) containing the human liver arginase cDNA was used as template. To obtain the chimeric species of human arginase type I, serial mutations were made in each loop to be modified, using as template DNA the wild-type arginase gene or the previous done mutation, subcloned in the plasmid pBluescript II KS (+). Specifically, the residues present in the arginase structure were replaced by those corresponding to the agmatinase sequence of E. coli.
(§3) All assays were initiated by adding the enzyme to a previously equilibrated buffer with the substrate in solution (the concentrations of used substrates were between 0.2–3 fold the Km). Urea was determined by a colorimetric method with α-isonitrosopropiophenone. The protein concentrations were determined by the Bradford’s method, with bovine serum albumin as standard. Initial velocity and enzymatic inhibition experiments were performed in duplicate and repeated three times. The inhibitory patterns were initially determined by double reciprocal plots and re-plots of intercepts and slopes versus inhibitor concentrations. […] Velocities are expressed as μmol of urea/10 min.

Experiment [2] addresses T2, human arginase type I N130D-S137C (Homo sapiens, UniProt P05089, N130D/S137C).
T2 sequence (P05089 1-322 N130D/S137C): T1 sequence (P05089 1-322 V182E) with N130D, S137C, E182V
The experiment can be described thus: Kinetic and inhibition studies, N130D-S137C mutant. The protocol: as §1, §2
(§4) All assays were initiated by adding the enzyme to a previously equilibrated buffer with the substrate in solution (the concentrations of used substrates were between 0.2–3 fold the Km). Urea was determined by a colorimetric method with α-isonitrosopropiophenone. The protein concentrations were determined by the Bradford’s method, with bovine serum albumin as standard. […]

The target of experiment [3] is T3, type I human arginase D181T/V182E + ins F (Homo sapiens, UniProt P05089, D181E/D181T/INS180T/V182E/V182F).
T3 sequence (P05089 with tags, fused parts or gaps INS180T/D181E/V182F): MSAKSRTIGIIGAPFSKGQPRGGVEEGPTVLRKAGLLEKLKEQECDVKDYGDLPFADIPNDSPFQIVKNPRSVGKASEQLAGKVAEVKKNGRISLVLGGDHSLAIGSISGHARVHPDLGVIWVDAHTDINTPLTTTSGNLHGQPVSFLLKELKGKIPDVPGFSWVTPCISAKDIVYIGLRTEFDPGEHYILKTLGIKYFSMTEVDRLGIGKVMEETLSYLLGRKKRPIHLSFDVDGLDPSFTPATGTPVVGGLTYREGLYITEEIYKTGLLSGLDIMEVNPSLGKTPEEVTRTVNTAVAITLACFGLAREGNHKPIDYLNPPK
Nature of the experiment: Kinetic and inhibition studies, D181T/V182E + ins F. The settings on record: substrate arginine. The protocol:
as §1, §2, §3

Experiment [4] addresses T4, human arginase type I N130D-N139D (Homo sapiens, UniProt P05089, N130D/N139D).
T4 sequence (P05089 1-322 N130D/N139D): T1 sequence (P05089 1-322 V182E) with N130D, N139D, E182V
The experiment can be described thus: Kinetic and inhibition studies, N130D-N139D mutant. The protocol: as §1, §2, §4

The target in experiment [5] is T5, human arginase type I N139D (Homo sapiens, UniProt P05089, N139D).
T5 sequence (P05089 1-322 N139D): T1 sequence (P05089 1-322 V182E) with N139D, E182V
The experiment can be described thus: Kinetic and inhibition studies, N139D mutant. The protocol:
as §1, §2, §3

[6] abbreviates: substrate = labelled compound, pH 9.5, 2 mM Mn2+.

Changes are numbered by the printed parent chain.

The text below walks through data of publication PMC9224512, “New Insights into the Determinants of Specificity in Human Type I Arginase: Generation of a Mutant That Is Only Active with Agmatine as Substrate” (International Journal of Molecular Sciences, 2022).

What is called Ki is the dissociation constant of the complex between target and ligand, obtained from inhibition or displacement. In general, kcat refers to the number of substrate molecules converted per active site and unit of time at saturation. For orientation: Km means the substrate concentration at which the rate is half of its maximum.

As to `NCCC[C@H](N)C(=O)O` [Ornithine, L-ornithine], the Inhibition type entry in experiment [1] and in experiment [3] was “Competitive” each time. The Kis in experiment [1] is 3.2 ± 0.2 mM; in experiment [3], 18 ± 6 mM. Besides, the results for the Ki in experiment [2] (read-out: Ki^orn), in experiment [4] (read-out: Ki^orn) and in experiment [5] (read-out: Ki^orn) were 7.1 mM, 6.4 mM and 6.2 mM, respectively.

`N=C(N)NCCC[C@H](N)C(=O)O` [Arginine, L-arginine]: the turnover number (kcat) in experiment [1] was 187 ± 10 s⁻¹; in experiment [2] (substrate = labelled compound) it was 23 s⁻¹; in experiment [3], 8.1 ± 1 s⁻¹; in experiment [4] (substrate = labelled compound), 33 s⁻¹; in experiment [5] (substrate = labelled compound), 64 s⁻¹. Also, the Km in experiment [1] (pH 9.5, 2 mM Mn2+) was 2.4 ± 0.2 mM; in experiment [2] (setting [6]), 6.5 mM; in experiment [3] (pH 9.5, 2 mM Mn2+) it was 20 ± 5 mM; in experiment [4] (setting [6]), 6.1 mM; in experiment [5] (setting [6]), 4.4 mM. For the same compound, in experiment [3], the “kcat, times lower than the wild-type arginase” value is 24 times.
